By EC50 is commonly meant the midpoint of the concentration-response curve. Read a high EC50 as lower potency in that assay.

Consider one compound from BindingDB's records for patent US20240246937 (Merck Sharp & Dohme, 2024).

This experiment concerns the target T1, L-amino-acid oxidase (Homo sapiens, UniProt Q96RQ9).
T1 sequence (Q96RQ9 whole entry): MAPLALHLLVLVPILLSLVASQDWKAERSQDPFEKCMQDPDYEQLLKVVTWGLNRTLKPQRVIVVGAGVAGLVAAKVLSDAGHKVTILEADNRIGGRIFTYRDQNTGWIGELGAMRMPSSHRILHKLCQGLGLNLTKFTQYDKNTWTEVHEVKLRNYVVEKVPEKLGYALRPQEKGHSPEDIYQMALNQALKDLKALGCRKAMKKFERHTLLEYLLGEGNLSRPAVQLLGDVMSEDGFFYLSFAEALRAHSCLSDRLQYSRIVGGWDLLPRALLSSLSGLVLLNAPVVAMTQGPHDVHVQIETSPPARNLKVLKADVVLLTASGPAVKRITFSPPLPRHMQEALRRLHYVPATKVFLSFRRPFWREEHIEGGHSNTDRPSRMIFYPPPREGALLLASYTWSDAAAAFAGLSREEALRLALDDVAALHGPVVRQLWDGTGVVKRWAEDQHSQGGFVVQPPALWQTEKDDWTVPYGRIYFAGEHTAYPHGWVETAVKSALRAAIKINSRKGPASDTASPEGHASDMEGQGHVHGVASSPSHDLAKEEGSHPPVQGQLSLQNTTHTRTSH
The experiment is described as follows: IL4I1 Enzymatic Assay. Here is the method:
Using this assay, the potency (EC50) of each compound was determined from a ten-point (1:3 serial dilution) titration curve using the following outlined procedure. To each well of a black flat-bottom Greiner (Cat #781076) 384 well-plate, 25 nL of compound (0.1% DMSO in final assay volume of 25 μL) was dispensed, followed by the addition of 12.5 μL of 1× assay buffer (50 mM Hepes 7.0 and 0.005% Tween20 (Sigma, Cat #P8341; low peroxide grade)) containing 2 nM of recombinant IL4I1 (R&D Systems, Cat #5684-AO-020). Plates were placed in an ambient temperature humidified chamber for a four-hour pre-incubation with compound. Subsequently, each reaction was initiated by the addition of 12.5 μL 1× assay buffer containing 2 mM of each aromatic amino acids (Phe/Tyr/Trp), 0.1 mM Amplex Red and 2 U/mL of HRP. The final reaction in each well of 25 μL consisted of 1 nM of IL4I1, 1 mM of each residues (Phe, Tyr and Trp), 0.05 mM Amplex Red and 1 U/mL of HRP. It should be noted that the concentrations of Amplex Red and HRP used here were in excess such that the conversion of H2O2 to resorufin product occurred

`CC1CC(N2CCN(Cc3nnc(-c4ccccc4)s3)C(=O)C2=O)C1` (stereo unspecified) [US20240246937, Example 289] came in with an EC50 of 6 nM.
